Data as given in US10537548B2, “Composition and medical product for reducing body weight and body fat, and use of said product” (Caliway Biopharmaceuticals Co., Ltd., priority 2014, dated 2020).

Assay: Animal Experiment I, drug administration during obesity induction (high-fat diet)
Assay type: in vivo, B6 female mice
Settings: oral gavage daily, 8 weeks, compared to obesity control group
Experimental: In this experimental example, 8-week old B6 female mice were experimented and divided into a normal control group, an obesity control group, a resveratrol group (the administered dose of resveratrol was 61.5 mg/kg B.W.), a green tea extract group (the administered dose of green tea extract was 123 mg/kg B.W.), and the plant extract compositions ME001 of the present invention group (the administered dose of ME001 was 676.5 mg/kg B.W.) Five female mice were included in each group for experimentation. During the experimental period, with the exception of the normal control group, the other groups were fed with high-fat diet for eight consecutive weeks to induce obesity symptoms, and were also fed by oral gavage with the test substance daily during the same eight weeks. The obesity control group was fed by oral gavage with an equal volume of sterile water, and the difference in body weight of each group of mice was evaluated. The body weight and average food intake of each animal were recorded weekly during the experimental period. The mice were sacrificed after the experimentation. […] The data of each group are expressed as mean±SD. Letters a, b, and c indicate the results of statistical analysis, wherein different letters indicate significant statistical difference between groups (p<0.05), and identical letters indicate no significant statistical difference between groups (p>0.05).

In the case of Oc1ccc(C=Cc2cc(O)cc(O)c2)cc1 [resveratrol], the “total body weight gain” value is reported as “did not show statistical difference”.
